Activity calls are given as the source filed them. The calls are words filed in the database; no cut-off is given here. Some results are limits rather than exact numbers.

Data set [1] has as its system WRL68. Kind of data set: Cytotoxicity against human WRL68 cells preincubated for 4 hrs followed by incubation in compound free media for 24 hrs by MTT assay. It is filed as functional, cell-based.
The test system of data set [2] is A-431. Kind of data set: Cytotoxicity against human A431 cells preincubated for 4 hrs followed by incubation in compound free media for 24 hrs by MTT assay. It is filed as functional, cell-based.
Data set [3] deals with A549. Kind of data set: Cytotoxicity against human A549 cells preincubated for 4 hrs followed by incubation in compound free media for 24 hrs by MTT assay. Type of data set: functional, cell-based.
Data set [4] can be described thus: Inhibition of porcine brain tubulin polymerization measured every min for 1 hr. Also on record: species or system Sus scrofa.
The test system of data set [5] is MCF7. Kind of data set: Cytotoxicity against human MCF7 cells preincubated for 4 hrs followed by incubation in compound free media for 24 hrs by MTT assay. It is filed as functional, cell-based.
In data set [6] the test system is DLD-1. Briefly: Cytotoxicity against human DLD1 cells preincubated for 4 hrs followed by incubation in compound free media for 24 hrs by MTT assay. Type of data set: functional, cell-based.
Data set [7] concerns Mus musculus. Briefly: Toxicity in Swiss mouse implanted with mouse EAC solid tumor cells assessed as body weight at 22 mg/kg, ip from day 1 to 9 and measured on day 13 post dose (reference value: 26.9g). As to conditions: in vivo. It is filed as organism-based.
For data set [8], the system named is Mus musculus. Briefly: Toxicity in Swiss mouse implanted with mouse EAC cells assessed as body weight at 20 mg/kg, ip measured on day 1 post dose (reference value: 22g). Type of data set: organism-based. As to conditions: in vivo.
Data set [9] concerns Mus musculus. Briefly: Toxicity in Swiss mouse implanted with mouse EAC solid tumor cells assessed as body weight at 22 mg/kg, ip measured on day 9 post dose (reference value: 26.7 g). As to conditions: in vivo. It is filed as organism-based.
The subject of data set [10] is Mus musculus. Briefly: Toxicity in Swiss mouse implanted with mouse EAC cells assessed as body weight at 20 mg/kg, ip measured on day 12 post dose (reference value: 35.5g). As to conditions: in vivo. Type of data set: organism-based.
Data set [11] relates to Ehrlich. Kind of data set: Antitumor activity against mouse EAC cells implanted in Swiss mouse assessed as tumor growth inhibition at 20 mg/kg, ip from day 1 to 9 and measured on day 12 post dose relative to control. It is filed as functional. The settings on record: read-out: TGI.
Data set [12] relates to Mus musculus. Kind of data set: Toxicity in Swiss mouse implanted with mouse EAC solid tumor cells assessed as body weight at 22 mg/kg, ip measured on day 1 post dose (reference value: 25 g). It is filed as organism-based. As to conditions: in vivo.
Data set [13] concerns Mus musculus. Kind of data set: Toxicity in Swiss mouse implanted with mouse EAC cells assessed as body weight at 20 mg/kg, ip measured on day 1 post dose (reference value: 24.77g). It is filed as organism-based. The settings on record: in vivo.
Data set [14] deals with Mus musculus. Kind of data set: Toxicity in Swiss mouse implanted with mouse EAC cells assessed as mortality at 20 mg/kg, ip from day 1 to 9 and measured on day 12 post dose. It is filed as organism-based. As to conditions: in vivo.
Data set [15] relates to Mus musculus. Kind of data set: Toxicity in Swiss mouse implanted with mouse EAC cells assessed as body weight at 20 mg/kg, ip measured on day 5 post dose (reference value: 23.7g). The settings on record: in vivo. It is filed as organism-based.
Data set [16] deals with Mus musculus. Briefly: Toxicity in Swiss mouse implanted with mouse EAC cells assessed as body weight at 20 mg/kg, ip measured on day 9 post dose (reference value: 30.55g). Type of data set: organism-based. The settings on record: in vivo.
The test system of data set [17] is Mus musculus. Kind of data set: Toxicity in Swiss mouse implanted with mouse EAC cells assessed as body weight at 20 mg/kg, ip measured on day 9 post dose (reference value: 28.66g). Type of data set: organism-based. The settings on record: in vivo.
Data set [18] deals with Mus musculus. Kind of data set: Toxicity in Swiss mouse implanted with mouse EAC cells assessed as body weight at 20 mg/kg, ip measured on day 12 post dose (reference value: 32.5g). It is filed as organism-based. As to conditions: in vivo.
Data set [19] relates to Mus musculus. Briefly: Toxicity in Swiss mouse implanted with mouse EAC solid tumor cells assessed as body weight at 22 mg/kg, ip measured on day 5 post dose (reference value: 26.7 g). It is filed as organism-based. As to conditions: in vivo.
Data set [20] relates to Mus musculus. Kind of data set: Toxicity in Swiss mouse implanted with mouse EAC cells assessed as body weight at 20 mg/kg, ip measured on day 5 post dose (reference value: 26.33g). It is filed as organism-based. The settings on record: in vivo.
Data set [21] has as its system Ehrlich. Briefly: Antitumor activity against mouse EAC cells implanted in Swiss mouse assessed as solid tumor growth inhibition at 22 mg/kg, ip from day 1 to 9 and measured on day 13 post dose relative to control. The settings on record: read-out: TGI. It is filed as functional.
For data set [22], the species on record is Sus scrofa. Kind of data set: Inhibition of porcine brain tubulin polymerization at 20 uM measured every min for 1 hr.

In the case of `COc1cc([C@@H]2c3cc4c(cc3[C@H](O)[C@H]3COC(=O)[C@H]23)OCO4)cc(OC)c1OC` [PODOFILOX], the IC50 is 3.02 µM in data set [1]; more than 100 µM in [2]; 5.61 µM in [3]; 0.78 µM in [4]; 4.16 µM in data set [5]; 0.11 µM in data set [6].
Regarding `COc1cc(/C=C/C(=O)CC(=O)/C=C/c2ccc(O)cc2)ccc1O`, the IC50 in data set [1] is 26.3 µM; in data set [2], more than 100 µM; in data set [3], 28.2 µM; in data set [5], 92.1 µM; in data set [6] it was more than 40 µM.
As for `O=c1[nH]cc(F)c(=O)[nH]1` [FLUOROURACIL], the Activity worked out at 24.85 g in [7]; 22.85 g in data set [8]; 24.71 g in [9]; 24.14 g in data set [10]; 26.42 g in [12]; 25.85 g in data set [13]. The Activity entry in data set [14] is recorded as “Non-Toxic”; in data set [15], 22.57 g; in [16], 24.57 g; in data set [17] it was 21.71 g; in data set [18], 21.42 g; in data set [19], 25.14 g. Moreover, the Activity in data set [20] worked out at 25.85 g. Moreover, the inhibition in vivo at 20 mg/kg in [11] was 96.4 to 96.8%. Further, the inhibition in vivo at 22 mg/kg in data set [21] worked out at 51%.
Consider `O=C(/C=C/c1ccc(O)cc1)CC(=O)/C=C/c1ccc(O)cc1` [BISDEMETHOXYCURCUMIN], for which the IC50 is 45.4 µM in data set [1], more than 100 µM in data set [2], 48.9 µM in [5] and more than 40 µM in data set [6].
Regarding `COc1cc(/C=C/C(=O)CC(=O)/C=C/c2ccc(O)c(OC)c2)ccc1O` [CURCUMIN], the IC50 in [1] is 27.8 µM; in [2], more than 100 µM; in data set [3] it was 43.9 µM; in data set [4], 5.12 µM; in data set [5], 22.1 µM; in data set [6] it was more than 40 µM. Further, the inhibition result in data set [22] is “Active”.
Consider `CC/C(=C(\c1ccccc1)c1ccc(OCCN(C)C)cc1)c1ccccc1` [TAMOXIFEN], for which the concentration for half-maximal inhibition (IC50) in data set [2] is more than 100 µM; in data set [5], 8.61 µM; in [6] it was 16.3 µM.
With `O=C(/C=C/c1ccc(/C=C/C(=O)c2ccc3c(c2)OCO3)cc1)c1ccc2c(c1)OCO2`, the IC50 in data set [1] is 80.1 µM; in data set [2] it was more than 100 µM; in data set [3] it was more than 100 µM; in [5], 30.6 µM; in data set [6], more than 40 µM.
For the compound `O=C(/C=C/c1ccc2c(c1)OCO2)c1cccc(C(=O)/C=C/c2ccc3c(c2)OCO3)c1`, the IC50 is more than 100 µM in [1]; 10 µM in data set [2]; 18.7 µM in data set [3]; more than 100 µM in [5]; 16.5 µM in data set [6].

These data come from ChEMBL document CHEMBL4229383, “Antiproliferative efficacy of curcumin mimics through microtubule destabilization” (Eur J Med Chem, 2018).
